According to patent publication US12371454B2, “Cyclic peptide compound having Kras inhibitory action” (priority 2019, dated 2025):
Starred links: 1 amine or outer side, 2 acyl side, 3 side chain; linkers in the order of their positions; H or OH if unused. Positions of bridges follow the written chain, without caps; N, C: chain ends. Non-standard residues stand in square brackets, D forms with d. Residues, ends and D or L forms follow the SMILES beside them. *: point of attachment. NMePhe(4-Cl) = CN[C@@H](Cc1ccc(Cl)cc1)C(=O)O; NMedβ3hAla = C[C@H](CC(=O)[*:2])N(C)[*:1]; Leu(4,5-dehydro) = C=C(C)C[C@H](N)C(=O)O; NMeAla(cPent) = CN[C@@H](CC1CCCC1)C(=O)O; Phe(3-Cl) = N[C@@H](Cc1cccc(Cl)c1)C(=O)O; Phe(3-OMe) = COc1cccc(C[C@H](N)C(=O)O)c1; Phe(3-I) = N[C@@H](Cc1cccc(I)c1)C(=O)O; X10 = CC(C)=CC[C@H](N[*:1])C(=O)[*:2]; NMeCba = CN[C@@H](CC1CCC1)C(=O)O; NMeD = CN[C@@H](CC(=O)O)C(=O)O; NMeL = CN[C@@H](CC(C)C)C(=O)O; NMeA = CN[C@@H](C)C(=O)O; NMeAib = CNC(C)(C)C(=O)O; Nle = CCCC[C@H](N)C(=O)O; Piperidide = C1CCN(*)CC1; Pyrrolidide = C1CCN(*)C1; Aze = O=C(O)[C@@H]1CCN1; Nva = CCC[C@H](N)C(=O)O; Sar = CNCC(=O)O

Molecular target: T1, Kras and SOS1 (biotin-tagged human Kras loaded with GDP, His-tagged human SOS1) (Homo sapiens, UniProt P01116, G12D)
T1 construct: made in house; host or cells: E. coli (stated for Kras only)
T1 sequence (P01116 1-188 isoform P01116-2 G12D): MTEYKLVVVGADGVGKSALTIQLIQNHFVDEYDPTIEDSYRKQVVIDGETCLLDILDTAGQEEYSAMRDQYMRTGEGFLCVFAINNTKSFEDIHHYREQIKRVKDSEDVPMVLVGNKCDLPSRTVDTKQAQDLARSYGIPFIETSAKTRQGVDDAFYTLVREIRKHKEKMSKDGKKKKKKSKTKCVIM
Assay: Protein-protein interaction inhibition between Kras and SOS1 (KrasGl2D-SOS PPI) using AlphaScreen
Type: binding
Settings: AlphaScreen; biotin-tagged human Kras loaded with GDP, His-tagged human SOS1; read-out: KRAS G12D-SOS PPI IC50
Procedure, shortened: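 AlphaScreen format: Ni donor beads capture His-SOS1, streptavidin acceptor beads capture biotinylated Kras (E. coli-expressed, GDP-loaded post-purification). Excite 680 nm, read 520-620 nm.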

Compound | IC50
C=C(C)C[C@@H]1NC(=O)[C@H](Cc2cccc(I)c2)NC(=O)CN(C)C(=O)[C@H](CC2CCCC2)N(C)C(=O)[C@@H]2CCN2C(=O)[C@H](C)N(C)C(=O)[C@H]([C@@H](C)CC)NC(=O)[C@H](CC(C)C)N(C)C(=O)C[C@@H](C(=O)N2CCCCC2)N(C)C(=O)[C@H](CC(C)C)NC(=O)C(C)(C)N(C)C1=O [Compound 1405] ([NMeL]I[NMeA][Aze][NMeAla(cPent)][Sar][Phe(3-I)][Leu(4,5-dehydro)][NMeAib]L[NMeD]-Piperidide; lactam N-11) | 82 nM
CCCC[C@@H]1NC(=O)[C@H](Cc2cccc(Cl)c2)NC(=O)CN(C)C(=O)[C@H](Cc2ccc(Cl)cc2)N(C)C(=O)CN(C)C(=O)CN(C)C(=O)[C@H]([C@@H](C)CC)NC(=O)[C@H](CC(C)C)N(C)C(=O)C[C@@H](C(=O)N2CCCC2)N(C)C(=O)[C@H](CC(C)C)NC(=O)C(C)(C)N(C)C1=O [Compound 1407] ([NMeL]I[Sar][Sar][NMePhe(4-Cl)][Sar][Phe(3-Cl)][Nle][NMeAib]L[NMeD]-Pyrrolidide; lactam N-11) | 170 nM
CC[C@H](C)[C@@H]1NC(=O)[C@H](CC(C)C)N(C)C(=O)C[C@@H](C)N(C)C(=O)[C@H](CC(C)C)NC(=O)C(C)(C)N(C)C(=O)[C@H](CC=C(C)C)NC(=O)[C@H](Cc2cccc(I)c2)NC(=O)CN(C)C(=O)[C@H](Cc2ccc(Cl)cc2)N(C)C(=O)[C@@H]2CCN2C(=O)CN(C)C1=O [Compound 1408] (cyclo([Aze][NMePhe(4-Cl)][Sar][Phe(3-I)][X10][NMeAib]L[NMedβ3hAla][NMeL]I[Sar])) | 160 nM
CCCC[C@@H]1NC(=O)[C@H](Cc2cccc(I)c2)NC(=O)CN(C)C(=O)[C@H](Cc2ccc(Cl)cc2)N(C)C(=O)CN(C)C(=O)CN(C)C(=O)[C@H]([C@@H](C)CC)NC(=O)[C@H](CC(C)C)N(C)C(=O)C[C@@H](C(=O)N2CCCC2)N(C)C(=O)[C@H](Cc2ccccc2)NC(=O)C(C)(C)N(C)C1=O [Compound 1409] ([NMeL]I[Sar][Sar][NMePhe(4-Cl)][Sar][Phe(3-I)][Nle][NMeAib]F[NMeD]-Pyrrolidide; lactam N-11) | 170 nM
CCCC[C@@H]1NC(=O)[C@H](Cc2cccc(I)c2)NC(=O)CN(C)C(=O)[C@H](Cc2ccc(Cl)cc2)N(C)C(=O)CN(C)C(=O)CN(C)C(=O)[C@H]([C@@H](C)CC)NC(=O)[C@H](CC(C)C)N(C)C(=O)C[C@@H](C(=O)N2CCCC2)N(C)C(=O)[C@H](CCC)NC(=O)C(C)(C)N(C)C1=O [Compound 1410] ([NMeL]I[Sar][Sar][NMePhe(4-Cl)][Sar][Phe(3-I)][Nle][NMeAib][Nva][NMeD]-Pyrrolidide; lactam N-11) | 270 nM
CCCC[C@@H]1NC(=O)[C@H](Cc2cccc(OC)c2)NC(=O)CN(C)C(=O)[C@H](Cc2ccc(Cl)cc2)N(C)C(=O)CN(C)C(=O)CN(C)C(=O)[C@H]([C@@H](C)CC)NC(=O)[C@H](CC(C)C)N(C)C(=O)C[C@@H](C(=O)N2CCCC2)N(C)C(=O)[C@H](CC(C)C)NC(=O)C(C)(C)N(C)C1=O [Compound 1412] ([NMeL]I[Sar][Sar][NMePhe(4-Cl)][Sar][Phe(3-OMe)][Nle][NMeAib]L[NMeD]-Pyrrolidide; lactam N-11) | 310 nM
CCCC[C@@H]1NC(=O)[C@H](Cc2cccc(I)c2)NC(=O)CN(C)C(=O)[C@H](CC2CCC2)N(C)C(=O)[C@@H]2CCN2C(=O)[C@H](C)N(C)C(=O)[C@H]([C@@H](C)CC)NC(=O)[C@H](CC(C)C)N(C)C(=O)C[C@@H](C(=O)N2CCCCC2)N(C)C(=O)[C@H](CC(C)C)NC(=O)C(C)(C)N(C)C1=O [Compound 1413] ([NMeL]I[NMeA][Aze][NMeCba][Sar][Phe(3-I)][Nle][NMeAib]L[NMeD]-Piperidide; lactam N-11) | 190 nM
C=C(C)C[C@@H]1NC(=O)[C@H](Cc2cccc(I)c2)NC(=O)CN(C)C(=O)[C@H](Cc2ccc(Cl)cc2)N(C)C(=O)[C@@H]2CCN2C(=O)CN(C)C(=O)[C@H]([C@@H](C)CC)NC(=O)[C@H](CC(C)C)N(C)C(=O)C[C@@H](C(=O)N2CCCCC2)N(C)C(=O)[C@H](CC(C)C)NC(=O)C(C)(C)N(C)C1=O [Compound 1414] ([NMeL]I[Sar][Aze][NMePhe(4-Cl)][Sar][Phe(3-I)][Leu(4,5-dehydro)][NMeAib]L[NMeD]-Piperidide; lactam N-11) | 38 nM
